Experimental data reported in patent US20250230193A1, “CYCLIC COMPOUND HAVING SELECTIVE KRAS INHIBITORY EFFECT ON HRAS AND NRAS” (CHUGAI SEIYAKU KABUSHIKI KAISHA, priority 2022, published 2025).

How the values were obtained:
[1] = molecular target: GDP-bound NRAS wild-type protein (Homo sapiens, UniProt P01111); experiment: Binding to NRAS by surface plasmon resonance (SPR), Single Cycle Kinetics
[2] = molecular target: GDP-bound HRAS wild-type protein (Homo sapiens, UniProt P01112); experiment: Binding to HRAS by surface plasmon resonance (SPR), Single Cycle Kinetics
Sequence of GDP-bound HRAS wild-type protein (P01112 whole entry): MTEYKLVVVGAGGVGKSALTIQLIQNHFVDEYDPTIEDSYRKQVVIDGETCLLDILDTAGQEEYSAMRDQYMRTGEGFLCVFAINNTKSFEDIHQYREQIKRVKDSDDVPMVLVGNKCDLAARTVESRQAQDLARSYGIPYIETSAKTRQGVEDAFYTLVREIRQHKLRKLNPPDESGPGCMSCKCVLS

[3] = KD ratio, GDP-bound NRAS wild-type vs GDP-bound KRAS wild-type, SPR
[4] = KD ratio, GDP-bound HRAS wild-type vs GDP-bound KRAS wild-type, SPR

Sequence of GDP-bound NRAS wild-type protein (P01111 whole entry): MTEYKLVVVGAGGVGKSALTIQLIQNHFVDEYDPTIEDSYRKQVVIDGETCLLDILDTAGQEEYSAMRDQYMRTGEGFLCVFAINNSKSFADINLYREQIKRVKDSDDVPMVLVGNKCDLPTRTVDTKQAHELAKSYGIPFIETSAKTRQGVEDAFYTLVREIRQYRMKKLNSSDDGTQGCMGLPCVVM

## CC[C@H](C)[C@@H]1NC(=O)[C@H](C)N(C)C(=O)C[C@@H](C(=O)N(C)C)N(C)C(=O)[C@H](C2CCCC2)N(C)C(=O)C2(CCC2)NC(=O)[C@@H]2CC(F)(F)CN2C(=O)[C@H](CCc2cc(F)c(C(F)(F)F)c(F)c2)NC(=O)CN(C)C(=O)[C@H](Cc2ccc(C(F)(F)F)cc2)N2CCCC[C@@H](C2=O)N(C)C(=O)CN(C)C1=O [PP0584]
[1]; SPR
  NRAS/KRAS (ratio of KD value with respect to GDP-bound NRAS wild-type protein to KD value with respect to KRAS): C (A compound having a KD ratio of 0.1 or more and less than 3 is denoted as C)
[2]; SPR
  HRAS/KRAS (ratio of KD value with respect to GDP-bound HRAS wild-type protein to KD value with respect to KRAS): C (A compound having a KD ratio of 0.1 or more and less than 3 is denoted as C)

## CCO[C@@H]1C[C@H]2C(=O)NC3(CCC3)C(=O)N(C)[C@@H](C3CCCC3)C(=O)N(C)[C@H](C(=O)N3CCOCC3)CC(=O)N(C)[C@@H](COC)C(=O)N[C@@H]([C@@H](C)CC)C(=O)N(C)CC(=O)N(C)[C@H]3CCCCCN(C3=O)[C@@H](Cc3ccc(C(F)(F)F)cc3)C(=O)N(C)CC(=O)N[C@@H](CCc3ccc(C(F)(F)F)c(Cl)c3)C(=O)N2C1 [PP0849]
[1]; [3]
  NRAS/KRAS (ratio of KD value with respect to NRAS to KD value with respect to KRAS): B (a compound having 3 or more and less than 10 is denoted as B)
[2]; [4]
  HRAS/KRAS (ratio of KD value with respect to HRAS to KD value with respect to KRAS): B (a compound having 3 or more and less than 10 is denoted as B)

## CCO[C@@H]1C[C@H]2C(=O)NC3(CC(C)(C)C3)C(=O)N(C)[C@@H](C(CC)CC)C(=O)N(C)[C@H](C(=O)N3CCCC3)CC(=O)N(C)[C@@H](COC)C(=O)N[C@@H]([C@@H](C)CC)C(=O)N(C)CC(=O)N(C)[C@H]3C/C=C\CCN(C3=O)[C@@H](Cc3ccc(C)cc3)C(=O)N(C)CC(=O)N[C@@H](CCc3ccc(C(F)(F)F)c(Cl)c3)C(=O)N2C1 [PP2144]
[1]; SPR, GDP-bound NRAS wild-type vs GDP-bound KRAS wild-type
  NRAS/KRAS (ratio of KD value with respect to NRAS to KD value with respect to KRAS): AA (a compound having 20 or more is denoted as AA)
[2]; SPR, GDP-bound HRAS wild-type vs GDP-bound KRAS wild-type
  HRAS/KRAS (ratio of KD value with respect to HRAS to KD value with respect to KRAS): A (a compound having 10 or more and less than 20 is denoted as A)

## CCO[C@@H]1C[C@H]2C(=O)NC3(CC(F)(F)C3)C(=O)N(C)[C@@H](C(CC)CC)C(=O)N3CCC[C@@H]3CC(=O)N(C)[C@@H](CC3CC3)C(=O)N[C@@H]([C@@H](C)CC)C(=O)N(C)CC(=O)N(C)[C@H]3C/C=C\CCN(C3=O)[C@@H](Cc3ccc(C(F)(F)F)cc3)C(=O)N(C)CC(=O)N[C@@H](CCc3cc(F)c(C(F)(F)F)c(F)c3)C(=O)N2C1 [PP1614]
[1]; [3]
  NRAS/KRAS (ratio of KD value for NRAS to KD value for KRAS): A (a compound having 10 or more and less than 20 is denoted as A)
[2]; [4]
  HRAS/KRAS (ratio of KD value for HRAS to KD value for KRAS): A (a compound having 10 or more and less than 20 is denoted as A)

## CCO[C@@H]1C[C@H]2C(=O)NC3(CCC3)C(=O)N(C)[C@@H](C3CCCC3)C(=O)N(C)[C@H](C(=O)N(C)C)CC(=O)N(C)[C@@H](CC3CCCC3)C(=O)N[C@@H]([C@@H](C)CC)C(=O)N(C)CC(=O)N(C)[C@H]3C/C=C\CCN(C3=O)[C@@H](Cc3ccc(C)cc3)C(=O)N(C)CC(=O)N[C@@H](CCc3ccc(C4CC4)c(F)c3)C(=O)N2C1 [PP2683]
[1]; class symbols
  NRAS/KRAS (ratio of KD value with respect to GDP-bound NRAS wild-type protein to KD value with respect to KRAS): A (a compound having 10 or more and less than 20 is denoted as A)
[2]; class symbols
  HRAS/KRAS (ratio of KD value with respect to GDP-bound HRAS wild-type protein to KD value with respect to KRAS): A (a compound having 10 or more and less than 20 is denoted as A)

## CCO[C@@H]1C[C@H]2C(=O)NC3(CCC3)C(=O)N(C)[C@@H](C3CCCC3)C(=O)N(C)[C@H](C(=O)N(C)C)CC(=O)N(C)[C@@H](CC3CCCC3)C(=O)N[C@@H]([C@@H](C)CC)C(=O)N(C)CC(=O)N(C)[C@H]3C/C=C\CCN(C3=O)[C@@H](Cc3ccc(C)cc3)C(=O)N(C)CC(=O)N[C@@H](CCc3ccc(CC)c(F)c3)C(=O)N2C1 [PP2686]
[1]; class symbols
  NRAS/KRAS (ratio of KD value with respect to GDP-bound NRAS wild-type protein to KD value with respect to KRAS): A (a compound having 10 or more and less than 20 is denoted as A)
[2]; class symbols
  HRAS/KRAS (ratio of KD value with respect to GDP-bound HRAS wild-type protein to KD value with respect to KRAS): A (a compound having 10 or more and less than 20 is denoted as A)

## CCO[C@@H]1C[C@H]2C(=O)NC3(CC(C)(C)C3)C(=O)N(C)[C@@H](C(CC)CC)C(=O)N(C)[C@H](C(=O)N(C)C)CC(=O)N(C)[C@@H](COC)C(=O)N[C@@H]([C@@H](C)CC)C(=O)N3CCC[C@H]3C(=O)N(C)[C@H]3C/C=C\CCN(C3=O)[C@@H](Cc3ccc(C(F)(F)F)cc3)C(=O)N(C)CC(=O)N[C@@H](CCc3ccc(Cl)c(Cl)c3)C(=O)N2C1 [PP2635]
[1]; class symbols
  NRAS/KRAS (ratio of KD value with respect to GDP-bound NRAS wild-type protein to KD value with respect to KRAS): AA (a compound having 20 or more is denoted as AA)
[2]; class symbols
  HRAS/KRAS (ratio of KD value with respect to GDP-bound HRAS wild-type protein to KD value with respect to KRAS): A (a compound having 10 or more and less than 20 is denoted as A)
